“Also recorded” adds a separate entry of the source.
Biological target: T1, TLR 4 (Mus musculus, UniProt Q9JHF9+Q9QUK6)
T1 construct: endogenous in cells; host or cells: RAW264.7 (ATCC)
T1 sequence (Q9QUK6 26-835): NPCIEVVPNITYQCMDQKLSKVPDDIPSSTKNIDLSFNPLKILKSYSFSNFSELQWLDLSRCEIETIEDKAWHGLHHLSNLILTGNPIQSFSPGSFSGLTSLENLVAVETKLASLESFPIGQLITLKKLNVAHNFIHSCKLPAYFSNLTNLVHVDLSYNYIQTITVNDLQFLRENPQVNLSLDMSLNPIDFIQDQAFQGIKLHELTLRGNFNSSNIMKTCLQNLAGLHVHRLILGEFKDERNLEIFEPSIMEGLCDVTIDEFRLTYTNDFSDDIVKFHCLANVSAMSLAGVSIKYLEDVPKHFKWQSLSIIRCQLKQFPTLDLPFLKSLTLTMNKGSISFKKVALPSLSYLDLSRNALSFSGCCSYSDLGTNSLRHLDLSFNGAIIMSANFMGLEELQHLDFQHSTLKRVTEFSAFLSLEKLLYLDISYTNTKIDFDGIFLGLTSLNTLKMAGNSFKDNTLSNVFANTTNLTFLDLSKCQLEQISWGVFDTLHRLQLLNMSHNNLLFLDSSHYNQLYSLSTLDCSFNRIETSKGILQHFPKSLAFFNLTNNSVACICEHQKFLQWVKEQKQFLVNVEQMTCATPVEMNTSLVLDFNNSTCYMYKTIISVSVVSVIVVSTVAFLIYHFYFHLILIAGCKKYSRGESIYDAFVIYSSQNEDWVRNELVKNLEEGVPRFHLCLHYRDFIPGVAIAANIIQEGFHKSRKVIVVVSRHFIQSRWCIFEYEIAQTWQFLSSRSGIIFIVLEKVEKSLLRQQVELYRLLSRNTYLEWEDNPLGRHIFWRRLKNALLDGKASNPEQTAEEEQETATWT
T1 sequence (Q9JHF9 19-160): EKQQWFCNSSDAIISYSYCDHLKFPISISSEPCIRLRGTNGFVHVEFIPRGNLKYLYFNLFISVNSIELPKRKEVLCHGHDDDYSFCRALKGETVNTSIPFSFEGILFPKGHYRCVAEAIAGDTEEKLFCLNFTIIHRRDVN
Assay: LPS-induced TNF-α secretion by RAW264.7 cells (TLR 4 antagonism)
Format: cell-based
Details: for antagonism of TLR 4 activation (TNFα secretion): 10 ng/mL LPS, 50 μg/mL lipid; for antagonism of TLR 4 activation (TNFα secretion) / IC50 / IC50 values (inhibition of TNFα release): 4 hours; for IC50 / IC50 values (inhibition of TNFα release): RAW264.7, 10 ng/mL LPS, lipid 100 to 0.008 μg/mL; for IC50: read-out: IC50 values (inhibition of TNFα release) (converted); for potency as TLR 4 antagonist compared to POPG: from dose response curves
Method: The mouse macrophage cell line, RAW264.7, was obtained from ATCC and maintained in DMEM, supplemented with 10% bovine growth serum and 1× penicillin streptomycin. Cells were maintained at 37° C. with 5% carbon dioxide: 95% air atmosphere within the incubator. Experiments were completed in a 96-well plate where cells were seated at a density of 1×10^5 cells per well, 24 prior to stimulation with TLR agonists and antagonists. Lipids were dried under a stream of nitrogen, hydrated with phosphate-buffered saline (PBS) at 37° C. for one hour, followed by water bath sonication to create liposomes. Each condition for cell stimulation and antagonism was prepared in DMEM in a separate tube and consisted of: control, TLR agonist, TLR agonist+lipid, and lipid alone. 100 μL aliquots of medium+agonists+antagonists were added to each well and incubated at 37° C. for 4 hours. Subsequently, the media were collected, diluted and an enzyme-linked immunosorbent assay (ELISA) was performed to quantify TNFα release by cells.
The additional experiments disclosed herein, tested the initial activity of multiple POPG analogs. […] However, it was unknown how the combination of a xylitol head group along with varying hydrophobic chains affects this activity and mechanism of suppression. Varying the hydrophobic chains provides an approach for optimization of a PX lipid for maximum efficacy and uncovers important structure/function relationships. To test antagonist activity of PX lipids for preventing the activation of TLR 4, LPS was added to RAW264.7 cells at 10 ng/mL in the absence or presence of 50 μg/mL of lipid and incubated for 4 hours. After incubation, media were collected and secretion of the proinflammatory cytokine, TNFα, was quantified by ELISA as a downstream consequence of TLR 4 activation. Eight xylitol lipid analogs suppressed the activation of TLR 4 in the presence of LPS stimulus. […] Although inhibition of TLR 4 by DSPX was statistically different from LPS alone, its antagonism was marginal. DSPX is also a saturated lipid and the hydrophobic chains are 18 carbons in length. […] In these studies none of the lipids alone elicited significant amounts of proinflammatory cytokine release.
For quantitative comparisons between POPG analogs and POPG, concentration-dependent inhibition studies were performed and IC50 values were determined. RAW264.7 cells were stimulated with 10 ng/mL of LPS in combination with concentrations of lipid from 100 μg/mL to 0.008 μg/mL. Cells were stimulated for 4 hours followed by collection of media and quantification of TNFα released into the medium.

SMILES: CCCCCCCCCCCCCCOC[C@H](COP(=O)(O)OCC(O)C(O)C(O)CO)OCCCCCCCCCCCCCC (mixture of isomers) [14:0 DEPX, sn-1-O-myristyl, sn-2-O-myristyl sn-3 glycerol phosphoxylitol]
- antagonism of TLR 4 activation (TNFα secretion): effective antagonists
- IC50: 4.08 µM

SMILES: CCCCCCC=CCCCCCCCC(=O)OCC(COP(=O)(O)OCC(O)C(O)C(O)CO)OC(=O)CCCCCCCC=CCCCCCC (mixture of isomers) [16:1 DPPX, sn-1-palmitoleoyl, sn-2-palmitoleoyl sn-3 glycerol phosphoxylitol]
- IC50 values (inhibition of TNFα release): 1 µg/mL

SMILES: CCCCCCCCC=CCCCCCCCCOCC(COP(=O)(O)OCC(O)C(O)C(O)CO)OCCCCCCCCC=CCCCCCCCC (mixture of isomers) [18:1 DEPX, sn-1-O-octadecenyl, sn-2-O-octadecenyl sn-3 glycerol phosphoxylitol]
- antagonism of TLR 4 activation (TNFα secretion): effective antagonists; also recorded: inhibit
- IC50 values (inhibition of TNFα release): 0.33 µg/mL
- potency as TLR 4 antagonist compared to POPG: more potent antagonists of TLR 4 activation than POPG

SMILES: CCCCCC=CCC=CCCCCCCCC(=O)OCC(COP(=O)(O)OCC(O)C(O)C(O)CO)OC(=O)CCCCCCCC=CCC=CCCCCC (mixture of isomers) [18:2 DLPX, sn-1-linoleoyl, sn-2-linoleoyl sn-3 glycerol phosphoxylitol]
- IC50 values (inhibition of TNFα release): 0.28 µg/mL
- potency as TLR 4 antagonist compared to POPG: more potent antagonists of TLR 4 activation than POPG

SMILES: CCCCCCCCCCCCCC(=O)OC[C@H](COP(=O)(O)OCC(O)C(O)C(O)CO)OC(=O)CCCCCCCCCCCCC (mixture of isomers) [DMPX, sn-1-myristoyl, sn-2-myristoyl sn-3 glycerol phosphoxylitol]
- antagonism of TLR 4 activation (TNFα secretion): strong antagonistic activity
- IC50: 33 µM

SMILES: CCCCCCCCC=CCCCCCCCC(=O)OCC(COP(=O)(O)OCC(O)C(O)C(O)CO)OC(=O)CCCCCCCC=CCCCCCCCC (mixture of isomers) [DOPX, sn-1-oleoyl, sn-2-oleoyl sn-3 glycerol phosphoxylitol]
- antagonism of TLR 4 activation (TNFα secretion): inhibit
- IC50 values (inhibition of TNFα release): 0.36 µg/mL
- potency as TLR 4 antagonist compared to POPG: more potent antagonists of TLR 4 activation than POPG

SMILES: CCCCCCCCCCCCCCCC(=O)OCC(COP(=O)(O)OCC(O)C(O)C(O)CO)OC(=O)CCCCCCCCCCCCCCC (stereo not drawn) [DPPX, sn-1-palmitoyl, sn-2-palmitoyl sn-3 glycerol phosphoxylitol]
- antagonism of TLR 4 activation (TNFα secretion): ineffective as an antagonist
- IC50 values (inhibition of TNFα release): could not be determined

SMILES: CCCCCCCCCCCCCCCCCC(=O)OCC(COP(=O)(O)OCC(O)C(O)C(O)CO)OC(=O)CCCCCCCCCCCCCCCCC (stereo not drawn) [DSPX, sn-1-stearoyl, sn-2-stearoyl sn-3 glycerol phosphoxylitol]
- antagonism of TLR 4 activation (TNFα secretion): marginal
- IC50 values (inhibition of TNFα release): could not be determined

SMILES: CCCCCCCC/C=C\CCCCCCCC(=O)O[C@H](COC(=O)CCCCCCCCCCCCCCC)COP(=O)([O-])OCC[N+](C)(C)C [POPC, 1-palmitoyl-2-oleoyl-sn-glycero-3-phosphocholine, reference compound]
- antagonism of TLR 4 activation (TNFα secretion): does not significantly alter the activation of TLR4
- IC50 values (inhibition of TNFα release): could not be determined

SMILES: CCCCCCCC/C=C\CCCCCCCC(=O)O[C@H](COC(=O)CCCCCCCCCCCCCCC)COP(=O)(O)OCC(O)CO (stereo partly drawn) [POPG, palmitoyl-oleoyl-phosphatidylglycerol, reference compound]
- antagonism of TLR 4 activation (TNFα secretion): inhibits activation of TLR4
- IC50 values (inhibition of TNFα release): 3.33 µg/mL
- inhibitory concentration reducing TNF-α production by 50% (IC50), as shown in FIG. 3 (RAW264.7, 10 ng/ml LPS): ~2 µg/mL

SMILES: CCCCCCCC/C=C\CCCCCCCC(=O)O[C@H](COC(=O)CCCCCCCCCCCCCCC)COP(=O)(O)OCC(O)C(O)C(O)CO (stereo partly drawn) [POPX, sn-1-palmitoyl, sn-2-oleoyly sn-3 glycerol phosphoxylitol]
- IC50 values (inhibition of TNFα release): 0.52 µg/mL
- potency as TLR 4 antagonist compared to POPG: more potent antagonists of TLR 4 activation than POPG
